Source: patent US20230323369A1, “SCREENING MODEL AND METHOD FOR HBV CCCDNA-TARGETING DRUG” (priority 2020, published 2023)
Where a name gives a salt, the structure may show the parent alone.

What was measured:
G2-Rccc1a cells = test: CCK8 cytotoxicity in G2-Rccc1a cells; settings: 1 µM, 4 days
Experimental: (§1) In this example, the reporter model of Example 1 (HepaRG-Hibit16 integrated with Hibit16 constructed based on HepaRG cells) and the reporter model of Example 2 (HepG2-Rccc1a integrated with Rccc1a constructed based on HepG2) were investigated for screening cccDNA inhibitors. These two cells were used to evaluate the potential of 189 drugs to inhibit cccDNA, including clinical drugs for different diseases or drugs in the clinical research stage. The screening work was carried out in a 96-well cell culture plate, RG-Hibit16 cells were plated at a cell density of 15,000/well, and G2-Rcccla cells were plated at a cell density of 35,000/well. RG-Hibit16 cells were treated with drugs 1 week after plating. For RG-Hibit16, different compounds were added for treatment when Dox was added to induce virus expression; the next day after G2-Rccc1a cells were plated, they were firstly infected with adenovirus Adv-Cre to express Cre recombinase protein, and different compounds were added 2 days later for treatment, and all compounds were diluted to 1 µM at the final concentration, 200 µL per well; new medium was replaced every 2 days, the expression of HiBiT in the cell supernatant was detected after 4 days of compound treatment, and CCK8 detection reagent was added at a ratio of 10:1 to detect the cytotoxicity of the compounds.

RG-Hibit16 cells = test: CCK8 cytotoxicity in RG-Hibit16 cells; settings: 1 µM, 4 days
Experimental: as §1

HBV cccDNA [1] = test: Compound screening in RG-Hibit16 reporter cells (HiBiT in supernatant); assay type: cell-based, hepatitis B virus; settings: 1 µM, 4 days of compound treatment, among 189 compounds
Experimental: (§2) Detection of HiBiT: Nano Glo HiBiT Extracellular Detection System (Cat. No. N2421) of Promega Corporation was used for HiBiT detection, and the detection steps were carried out according to the kit instructions.
(§3) The reporter model prepared in Example 1 comprised an HBV variant integrated with 3 repeats of HiBiT sequence. The mRNA transcribed directly from the HBV variant as a template lacked the initiation codon for HiBiT expression, and could not translate the protein attached to the HiBiT tag. Only after the pgRNA transcribed from the HBV variant was reversely transcribed to form cccDNA, the mRNA transcribed from cccDNA as a template could translate the protein attached to the HiBiT tag, so the expression level of HiBiT could be used to indicate the formation of HBV cccDNA. In the reporter model prepared in Example 2, the HiBiT sequence was inserted in the middle of the HBV core sequence, the N-terminus sequence and C-terminus sequence of the core were respectively attached to the C-terminus and N-terminus of the HBV replicon, and loxP sequences were ligated to both ends of the HBV replicon, so that in the absence of Cre recombinase expression, the HiBiT tag lacked a promoter and could not be expressed; but with the expression of Cre recombinase, it could mediate the recombination of double-stranded DNA, so that the linear HBV genome DNA formed a closed circular DNA, and after the circular DNA was formed, the HiBiT tag could use the endogenous promoter of HBV to initiate the expression of the protein attached to the HiBiT tag, so the signal of the HiBiT tag could be used to indicate the formation of recombinant HBV cccDNA, i.e., HBV rcccDNA.

HBV rcccDNA = test: Compound screening in G2-Rccc1a reporter cells (HiBiT in supernatant, Adv-Cre); assay type: cell-based, hepatitis B virus; settings: 1 µM, 4 days of compound treatment, among 189 compounds
Experimental: as §2, §3

HBV = test: HepG2-hNTCP-2B1 HBV infection model; assay type: cell-based, hepatitis B virus; settings: for effect on intracellular cccDNA: HepG2-hNTCP-2B1, after 8 days of infection
Source text: Detection of HBsAg/HBeAg: The detection procedures of hepatitis B surface antigen (chemiluminescence method CLEIA, product standard number: YZB/Guo 0346-2014) and e antigen (enzyme-linked immunosorbent assay ELISA, product standard number: YZB/Guo 0216-2013) were both carried out according to the detection methods of the kits of Beijing Wantai Company.
(§4) Detection of HBV cccDNA: The modified Hirt method was used for HBV cccDNA extraction, with Tiangen Plasmid Mini Kit. The lysis buffers involved were Buffer I (50 mM Tris, 10 mM EDTA, pH 7.5), Buffer II (1.2 % SDS), Buffer III (3 M CsCl, 1 M potassium acetate, 0.67 M acetic acid), which were used to replace P1, P2 and P3 in the Tiangen Plasmid Mini Kit respectively. The extraction steps and methods were performed by referring to the plasmid extraction method of the kit. The instrument used is Roche’s LightCycler® 96. HBV cccDNA and mitochondrial DNA (mtDNA) were quantified respectively, and the relative values of HBV cccDNA and mtDNA were calculated.
We further verified the functions of these 6 compounds in the HepG2-hNTCP-2B1 infection model. HepG2-hNTCP-2B1 was the single clone 2B1 selected for the highest susceptibility to HBV which is made by overexpressing hNTCP in HepG2 cells. In the evaluation by this model, the cells were firstly infected with HBV virus, washed with PBS to remove the residual virus on the next day, different compounds were added after 2 days, and then the cell supernatant was collected and fresh medium was replaced every 2 days, the viral antigen in the cell supernatant was detected, the cells were lysed after 8 days of infection, the intracellular HBV cccDNA was detected, and the evaluation results were shown in FIG. 7. […] The functions of these five compounds were verified in the HepG2-hNTCP-2B1 infection model, and the evaluation strategy was the same as that of the aforementioned inhibitor.

HBV cccDNA [2] = test: HepaRG-Hibit16 reporter cells, evaluation of HBV inhibitors (Doxycycline induction); assay type: cell-based, hepatitis B virus; settings: for formation of cccDNA: Doxycycline-induced, cell lysate
Experimental: as §2, §4
HepaRG-Hibit16 cells were obtained by transfecting HepaRG cells with Hibit16 plasmid and PiggyBac transposase, integrating the HBV variant sequence (Hibit16) and selection markers into the genome of the cells, and screened by puromycin resistance and red fluorescent marker; Doxycycline could activate TRE3G promoter to initiate the expression of iRFP670, as well as the transcription and replication of HBV, thereby generating HiBiT, as shown in FIG. 4A. To evaluate the function of HBV inhibitors in the cells, the cells were first plated, and Doxycycline was added to induce viral transcription and replication while different HBV inhibitors were added for intervention. The cell supernatant was collected every 2 days, the medium was replaced, and the HiBiT signal, HBsAg, HBeAg in the cell supernatant, and the HBV DNA and HBV cccDNA in the cell lysate were detected, and the responses of the cells to HBV inhibitors were shown in FIGS. 4B-F. Tenofovir (tenofovir disoproxil fumarate, TDF) is a nucleotide reverse transcriptase inhibitor, and Morphothiadin (abbreviation: Mor) is an assembly regulator of core particles, which are already in the clinical Phase II/III evaluation stage, and both can inhibit the formation of cccDNA.

[3] = HepG2-hNTCP-2B1, cell supernatant

| SMILES | cytotoxicity (CCK8) (G2-Rccc1a cells) | cytotoxicity (CCK8) (RG-Hibit16 cells) | expression level of HiBiT (surrogate for HBV cccDNA) (HBV cccDNA [1]) | expression level of HiBiT (surrogate for HBV rcccDNA) (HBV rcccDNA) | effect on intracellular cccDNA (HBV) | effect on HBeAg (HBV; [3]) | also measured |
| --- | --- | --- | --- | --- | --- | --- | --- |
| CCCCCCCCCCCCCCCC[n+]1ccccc1 [Cetylpyridinium] | no obvious cytotoxicity | no obvious cytotoxicity | – | – | – | – | – |
| O=C(O)c1cc(-c2ccccc2)nc2ccccc12 [Cinchophen] | – | – | up-regulated effects | up-regulated effects | up-regulate | weak promotion effect | – |
| Nc1nc(Cl)nc2c1ncn2[C@H]1C[C@H](O)[C@@H](CO)O1 [Cladribine] | – | – | up-regulated effects | up-regulated effects | up-regulate | weak promotion effect | expression level of HBsAg (HBV; [3]): significantly up-regulate |
| C[C@@H](Oc1cc(-c2cnn(C3CCNCC3)c2)cnc1N)c1c(Cl)ccc(F)c1Cl [Crizotinib] | no obvious cytotoxicity | no obvious cytotoxicity | – | most significantly inhibited | – | – | – |
| O=C1c2c(O)cccc2Cc2cccc(O)c21 [Dithranol] | no obvious cytotoxicity | no obvious cytotoxicity | – | – | – | – | – |
| C[C@H]1O[C@@H](n2cc(F)c(=O)[nH]c2=O)[C@H](O)[C@@H]1O [Doxifluridine] | no obvious cytotoxicity | no obvious cytotoxicity | – | most significantly inhibited | significant inhibitory effect | – | – |
| N=C(N)NC(=O)Cc1c(Cl)cccc1Cl [Guanfacine] | no obvious cytotoxicity | no obvious cytotoxicity | most significantly inhibited | – | – | – | – |
| CN1CCc2c(c3ccccc3n2Cc2ccccc2)C1 [Mebhydrolin] | – | – | up-regulated effects | up-regulated effects | up-regulate | weak promotion effect | – |
| CCOC(=O)C1=C(CN2CCOCC2)NC(c2nccs2)=NC1c1ccc(F)cc1Br (stereo not drawn) [Mor, Morphothiadin] | – | – | – | – | – | – | formation of cccDNA (HBV cccDNA [2]): could inhibit the formation of cccDNA; expression level of HiBiT vs control group (HBV cccDNA [2]; cell supernatant): significantly lower than that in the control group |
| COc1ccccc1N1CCN(CC(O)COc2cccc3ccccc23)CC1 (stereo not drawn) [Naftopidil] | – | – | up-regulated effects | up-regulated effects | – | weak promotion effect | – |
| CC1(C)CCC(C)(C)c2cc(Cn3cccn3)c(/C=C/c3ccc(C(=O)O)cc3)cc21 [Palovarotene] | no obvious cytotoxicity | no obvious cytotoxicity | most significantly inhibited | most significantly inhibited | – | – | inhibition rate against HBsAg (HBV; [3]): more than 60%; inhibitory effect on HBsAg (HBV; [3]): relatively poor; inhibition rate against HBV cccDNA (HBV; HepG2-hNTCP-2B1, intracellular, after 8 days of infection): more than 60% |
| CC(C)OC(=O)OCOP(=O)(CO[C@H](C)Cn1cnc2c(N)ncnc21)OCOC(=O)OC(C)C [TDF, tenofovir disoproxil fumarate] | – | – | – | – | – | – | formation of cccDNA (HBV cccDNA [2]): could inhibit the formation of cccDNA |
| CC[C@]1(O)C[C@H]2CN(CCc3c([nH]c4ccccc34)[C@@](C(=O)OC)(c3cc4c(cc3OC)N(C=O)[C@H]3[C@@](O)(C(=O)OC)[C@H](OC(C)=O)[C@]5(CC)C=CCN6CC[C@]43[C@@H]65)C2)C1 [Vincristine] | – | – | up-regulated effects | up-regulated effects | up-regulate | weak promotion effect | expression level of HBsAg (HBV; [3]): significantly up-regulate |
